One compound from ChEMBL document CHEMBL1150785 (Antimicrob Agents Chemother, 2007) can be followed below.

Assay type in all cases: functional
Assay [1] relates to Mycobacterium tuberculosis. The experiment in a line: Antimicrobial activity against Mycobacterium tuberculosis H37Ra assessed as early bactericidal activity.
Assay [2] concerns Mycobacterium tuberculosis. The experiment in a line: Antimicrobial activity against Mycobacterium tuberculosis H37Ra assessed as microbial kill activity.
The subject of assay [3] is Mycobacterium tuberculosis. Put plainly: Antimicrobial activity against Mycobacterium tuberculosis in mouse assessed as microbial kill activity.
The test system of assay [4] is Mycobacterium tuberculosis. The experiment in a line: Antimicrobial activity against Mycobacterium tuberculosis H37Ra.

Converted amounts (≈) assume the structure as drawn.

For `NNC(=O)c1ccncc1` [ISONIAZID], the log10CFU/ml/day in assay [1] worked out at 0.9. In addition, the log10CFU/ml in assay [2] was found to be 2.89. Moreover, in assay [3], the log10cfu came out at 1.3. The compound further returned an MIC in assay [4] of 0.0156 µg/mL (≈ 0.114 µM).
